How the values were obtained:
[1] = Stability in phosphate buffer assessed as hydrolysis at pH 7.4 after 3 days; type: physicochemical; details: read-out: Activity
[2] = Stability in presence of alpha-chymotrypsin at 100 mM after 12 hrs; type: ADME; details: 100000 µM
[3] = Stability assessed as hydrolysis half life in presence of alpha-chymotrypsin; type: ADME

Row | SMILES | degraded at 72 h [1] [%] | Activity [2] | half-life ([3]; alpha-chymotrypsin) [min] | t1/2 [3] [min]
1 | N[C@@H](Cc1ccccc1)C(=O)N[C@H]1CCOP(=O)(N(CCCl)CCCl)N1 (some centres undefined) | < 10 | Not Active |  | 
2 | N[C@@H](Cc1ccccc1)C(=O)N[C@@H]1CCOP(=O)(N(CCCl)CCCl)N1 (some centres undefined) | < 10 | Not Active |  | 
3 | O=C(N[C@@H](Cc1ccccc1)C(=O)N[C@@H]1CCOP(=O)(N(CCCl)CCCl)N1)OCc1ccccc1 (some centres undefined) |  | Active | > 720 | 
4 | O=C(N[C@@H](Cc1ccccc1)C(=O)N[C@H]1CCOP(=O)(N(CCCl)CCCl)N1)OCc1ccccc1 (stereo in doubt; cis) |  | Active |  | 20
5 | O=C(N[C@@H](Cc1ccccc1)C(=O)N[C@H]1CCOP(=O)(N(CCCl)CCCl)N1)OCc1ccccc1 (stereo in doubt; trans) |  |  |  | 534

Source: ChEMBL document CHEMBL1138392, “Phenylalanyl-aminocyclophosphamides as model prodrugs for proteolytic activation: synthesis, stability, and stereochemical requirements for enzymatic cleavage” (Bioorg Med Chem Lett, 2007)
